This is an account of results in US20100204203A1, “Chemical Compounds 637: Pyridopyrimidinediones as PDE4 Inhibitors” (priority 2007, published 2010).

Structures can show the parent of a compound that is named as a salt.

For the first experiment, the target named is recombinant Human Phosphodiesterase B2 (PDE4B2) (Homo sapiens, UniProt Q07343). Nature of the experiment: Human Phosphodiesterase B2 Radiometric Assay (yttrium silicate SPA beads, [3H]cyclic AMP). Conditions: at 0.32 uM. The class given is biochemical. In a few lines: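 Compounds were preincubated 30 min at 30 °C with 0.1 mg/mL PDE4B2 in 50 mM HEPES pH 7.5, 8.3 mM MgCl2, 1.7 mM EGTA, 0.01% Brij 35. Then 8 nM [3H]cAMP was added for 20 min, stopped with yttrium silicate SPA beads plus 18 mM ZnSO4 capturing product 5′AMP; pIC50 by curve fitting.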
Chain of recombinant Human Phosphodiesterase B2 (PDE4B2) (Q07343 1-564 isoform Q07343-2): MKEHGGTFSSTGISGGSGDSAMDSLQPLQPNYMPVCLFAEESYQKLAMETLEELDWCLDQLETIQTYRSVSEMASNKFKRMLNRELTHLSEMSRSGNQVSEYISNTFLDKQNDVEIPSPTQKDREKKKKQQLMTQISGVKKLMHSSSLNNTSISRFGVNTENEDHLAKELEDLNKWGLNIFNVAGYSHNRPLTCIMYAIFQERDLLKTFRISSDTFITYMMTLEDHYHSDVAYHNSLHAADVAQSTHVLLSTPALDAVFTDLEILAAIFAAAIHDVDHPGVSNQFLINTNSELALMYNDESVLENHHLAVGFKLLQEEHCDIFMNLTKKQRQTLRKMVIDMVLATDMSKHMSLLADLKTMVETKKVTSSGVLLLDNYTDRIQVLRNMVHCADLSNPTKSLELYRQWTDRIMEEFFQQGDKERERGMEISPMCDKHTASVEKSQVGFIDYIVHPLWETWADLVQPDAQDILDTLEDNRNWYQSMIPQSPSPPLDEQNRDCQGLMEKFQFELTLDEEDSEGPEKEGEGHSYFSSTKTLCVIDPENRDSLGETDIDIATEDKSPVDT
In the case of `CN1CCC(n2c(=O)n([C@H]3CC[C@@H](NC(=O)c4cn5cc(F)ccc5n4)CC3)c(=O)c3cc(F)cnc32)CC1` [Example 40, 6-fluoro-N-{cis-4-[6-fluoro-1-(1-methylpiperidin-4-yl)-2,4-dioxo-1,4-dihydropyrido[2,3-d]pyrimidin-3(2H)-yl]cyclohexyl}imidazo[1,2-c]pyridine-2-carboxamide], the “PDE4B2 (percent at a single concentration, printed in the pIC50 column)” value turned out to be 50% at 0.32 uM.

The experiment is the same for the next values; noted with them: recombinant human PDE4B2, radiometric SPA assay, 8 nM [3H]cyclic AMP.
With `CN(C)C1(C(=O)NC2CCC(n3c(=O)c4cc(F)cnc4n(-c4cccc(-c5ccc(CN6CCC(CO)CC6)cc5)c4)c3=O)CC2)CC1` (stereo not drawn) [Example 128, 1-(dimethylamino)-N-{4-[6-fluoro-1-(4′-{[4-(hydroxymethyl)piperidin-1-yl]methyl}biphenyl-3-yl)-2,4-dioxo-1,4-dihydropyrido[2,3-d]pyrimidin-3(2H)-yl]cyclohexyl}cyclopropane-carboxamide], the “PDE4B2 pIC50” value amounted to 9.8.

Still in this experiment, the particulars now being: recombinant human PDE4B2, radiometric SPA assay, 8 nM [3H]cyclic AMP; read-out: PDE4B2 pIC50 (converted).
As to `CCN1CCN(Cc2ccc(-c3cccc(-n4c(=O)n([C@H]5CC[C@@H](NC(=O)C6(N(C)C)CC6)CC5)c(=O)c5cc(F)cnc54)c3)cc2)CC1` [Example 130, 1-(dimethylamino)-N-{cis-4-[1-{4′-[(4-ethylpiperazin-1-yl)methyl]biphenyl-3-yl}-6-fluoro-2,4-dioxo-1,4-dihydropyrido[2,3-d]pyrimidin-3(2H)-yl]cyclohexyl}cyclopropane carboxamide], the IC50 was 25.1 pM.

For `C[C@H]1COCCN1Cc1cc(O)ccc1-c1cccc(-n2c(=O)n([C@H]3CC[C@@H](NCc4cn5cc(F)ccc5n4)CC3)c(=O)c3cc(F)cnc32)c1` [Example 317, 6-fluoro-3-(cis-4-{[(6-fluoroimidazo[1,2-a]pyridin-2-yl)methyl]amino}cyclohexyl)-1-(4′-hydroxy-2′-{[(3S)-3-methylmorpholin-4-yl]methyl}biphenyl-3-yl)pyrido[2,3-d]pyrimidine-2,4(1H,3H)-dione], the IC50 was 10 pM.

As for `CC(C)CCCC(C)n1c(=O)n([C@H]2CC[C@@H](NC(=O)c3cn4cc(F)ccc4n3)CC2)c(=O)c2cc(F)cnc21` (stereo partly drawn) [Example 36, N-{cis-4-[1-(1,5-dimethylhexyl)-6-fluoro-2,4-dioxo-1,4-dihydropyrido[2,3-d]pyrimidin-3(2H)-yl]cyclohexyl}-6-fluoroimidazo[1,2-a]pyridine-2-carboxamide], the IC50 is 6310 pM.

For `CC(C)N1CCN(Cc2ccc(-c3cccc(-n4c(=O)n([C@H]5CC[C@@H](NC(=O)c6cn7c(n6)CCCC7)CC5)c(=O)c5cc(F)cnc54)c3)cc2)CC1` [Example 134, N-{cis-4-[6-fluoro-1-{4′-[(4-isopropylpiperazin-1-yl)methyl]biphenyl-3-yl}-2,4-dioxo-1,4-dihydropyrido[2,3-d]pyrimidin-3(2H)-yl]cyclohexyl}-5,6,7,8-tetrahydroimidazo[1,2-a]pyridine-2-carboxamide], the IC50 was 7.94 pM.

For the molecule `O=c1c2cc(F)cnc2n(-c2cccc(-c3ccc(O)cc3CN3CC[C@@H](O)C3)c2)c(=O)n1[C@H]1CC[C@@H](NCc2cn3cc(F)ccc3n2)CC1` [Example 326, 6-fluoro-3-(cis-4-{[(6-fluoroimidazo[1,2-a]pyridin-2-yl)methyl]amino}cyclohexyl)-1-(4′-hydroxy-2′-{[(3R)-3-hydroxypyrrolidin-1-yl]methyl}biphenyl-3-yl)pyrido[2,3-d]pyrimidine-2,4(1H,3H)-dione], the IC50 is 398 pM.

On to `O=C(N[C@H]1CC[C@@H](n2c(=O)c3cc(F)cnc3n(-c3cccc(-c4ccc(CCN5CCNCC5)cc4)c3)c2=O)CC1)c1cn2cc(F)ccc2n1` [Example 102, 6-fluoro-N-{cis-4-[6-fluoro-2,4-dioxo-1-[4′-(2-piperazin-1-ylethyl)biphenyl-3-yl]-1,4-dihydropyrido[2,3-d]pyrimidin-3 (2H)-yl]cyclohexyl}imidazo[1,2-c]pyridine-2-carboxamide], for which the IC50 is 7.94 pM.

Consider `Cc1nc(C(=O)N[C@H]2CC[C@@H](n3c(=O)c4cc(F)cnc4n(-c4cccc(-c5ccc(CN6CCCNCC6)cc5)c4)c3=O)CC2)cs1` [Example 349, N-{cis-4-[1-[4′-(1,4-diazepan-1-ylmethyl)biphenyl-3-yl]-6-fluoro-2,4-dioxo-1,4-dihydropyrido[2,3-d]pyrimidin-3(2H)-yl]cyclohexyl}-2-methyl-1,3-thiazole-4-carboxamide], for which the IC50 is 20 pM.

As for `O=Cc1ccc(-c2cccc(-n3c(=O)n([C@H]4CC[C@@H](NC(=O)c5cn6cc(F)ccc6n5)CC4)c(=O)c4cc(F)cnc43)c2)cc1` [Example 24, 6-fluoro-N-{cis-4-[6-fluoro-1-(4′-formylbiphenyl-3-yl)-2,4-dioxo-1,4-dihydropyrido[2,3-d]pyrimidin-3(2H)-yl]cyclohexyl}imidazo[1,2-a]pyridine-2-carboxamide.], the IC50 was 7.94 pM.

As for `O=C(N[C@H]1CC[C@@H](n2c(=O)c3cc(F)cnc3n(-c3cccc(-c4ccc(CCN5CCOCC5)cc4)c3)c2=O)CC1)c1cn2cc(F)ccc2n1` [Example 50, 6-fluoro-N-{cis-4-[6-fluoro-1-[4′-(2-morpholin-4-ylethyl)biphenyl-3-yl]-2,4-dioxo-1,4-dihydropyrido[2,3-d]pyrimidin-3(2H)-yl]cyclohexyl}imidazo[1,2-c]pyridine-2-carboxamide], the IC50 was 7.94 pM.

For `COC[C@H](C)N(C)Cc1cc(O)ccc1-c1cccc(-n2c(=O)n([C@H]3CC[C@@H](NCc4cn5cc(F)ccc5n4)CC3)c(=O)c3cc(F)cnc32)c1` [Example 315, 6-fluoro-3-(cis-4-{[(6-fluoroimidazo[1,2-a]pyridin-2-yl)methyl]amino}cyclohexyl)-1-(4′-hydroxy-2′-{[[(1S)-2-methoxy-1-methylethyl](methyl)amino]methyl}biphenyl-3-yl)pyrido[2,3-d]pyrimidine-2,4(1H,3H)-dione], the IC50 is 158 pM.

Regarding `CN1CCN(Cc2cc(O)ccc2-c2cccc(-n3c(=O)n([C@H]4CC[C@@H](NC(=O)c5cn6cc(F)ccc6n5)CC4)c(=O)c4cc(F)cnc43)c2)CC1` [Example 71, 6-fluoro-N-{cis-4-[6-fluoro-1-{4′-hydroxy-2′-[(4-methylpiperazin-1-yl)methyl]biphenyl-3-yl}-2,4-dioxo-1,4-dihydropyrido[2,3-d]pyrimidin-3(2H)-yl]cyclohexyl}imidazo[1,2-a]pyridine-2-carboxamide trifluoroacetate salt], the IC50 was 79.4 pM.

Turning to `O=c1c2cc(F)cnc2n(-c2cccc(-c3cc(O)ccc3CN3CCOCC3)c2)c(=O)n1[C@H]1CC[C@@H](NCc2cn3cc(F)ccc3n2)CC1` [Example 337, 6-fluoro-3-(cis-4-{[(6-fluoroimidazo[1,2-a]pyridin-2-yl)methyl]amino}cyclohexyl)-1-[5′-hydroxy-2′-(morpholin-4-ylmethyl)biphenyl-3-yl]pyrido[2,3-d]pyrimidine-2,4(1H,3H)-dione], the IC50 was 100 pM.

With `C[C@H](CO)NCc1ccc(-c2cccc(-n3c(=O)n([C@H]4CC[C@@H](NC(=O)c5cn6cc(F)ccc6n5)CC4)c(=O)c4cc(F)cnc43)c2)cc1` [Example 59], the IC50 was 158 pM.

Take `O=c1c2cc(F)cnc2n(-c2cccc(-c3ccc(O)cc3CN3CCC[C@H]3CO)c2)c(=O)n1[C@H]1CC[C@@H](NCc2cn3cc(F)ccc3n2)CC1` [Example 330, 6-fluoro-3-(cis-4-{[(6-fluoroimidazo[1,2-a]pyridin-2-yl)methyl]amino}cyclohexyl)-1-(4′-hydroxy-2′-{[(2S)-2-(hydroxymethyl)pyrrolidin-1-yl]methyl}biphenyl-3-yl)pyrido[2,3-d]pyrimidine-2,4(1H,3H)-dione]: the IC50 is 2510 pM.

For the molecule `CN(C)Cc1ccc(-c2cccc(-n3c(=O)n([C@H]4CC[C@@H](NC(=O)c5cn6cc(F)ccc6n5)CC4)c(=O)c4cc(F)cnc43)c2)c(O)c1` [Example 94, N-{cis-4-[1-{4′-[(dimethylamino)methyl]-2′-hydroxybiphenyl-3-yl}-6-fluoro-2,4-dioxo-1,4-dihydropyrido[2,3-d]pyrimidin-3(2H)-yl]cyclohexyl}-6-fluoroimidazo[1,2-a]pyridine-2-carboxamide], the IC50 is 316 pM.

With `CN(Cc1cc(O)ccc1-c1cccc(-n2c(=O)n([C@H]3CC[C@@H](NCc4cn5cc(F)ccc5n4)CC3)c(=O)c3cc(F)cnc32)c1)C1CC1` [Example 323, 1-(2′-{[cyclopropyl(methyl)amino]methyl}-4′-hydroxybiphenyl-3-yl)-6-fluoro-3-(cis-4-{[(6-fluoroimidazo[1,2-a]pyridin-2-yl)methyl]amino}cyclohexyl)pyrido[2,3-d]pyrimidine-2,4(1H,3H)-dione], the IC50 is 251 pM.

On to `CN(C)[C@H]1CC[C@@H](n2c(=O)c3cc(F)cnc3n(-c3cccc(-c4ccccc4)c3)c2=O)CC1` [Example 66, 1-biphenyl-3-yl-3-[cis-4-(dimethylamino)cyclohexyl]-6-fluoropyrido[2,3-d]pyrimidine-2,4(1H,3H)-dione], for which the IC50 was 63100 pM.

Consider `O=c1c2cc(F)cnc2n(-c2cccc(-c3ccc(O)cc3CN3CCCOCC3)c2)c(=O)n1[C@H]1CC[C@@H](NCc2cccn3ccnc23)CC1` [Example 372, 6-fluoro-1-[4′-hydroxy-2′-(1,4-oxazepan-4-ylmethyl)biphenyl-3-yl]-3-{cis-4-[(imidazo[1,2-a]pyridin-8-ylmethyl)amino]cyclohexyl}pyrido[2,3-d]pyrimidine-2,4(1H,3H)-dione], for which the IC50 is 631 pM.

With `CC(C)N1CCN(Cc2ccc(-c3cccc(-n4c(=O)n([C@H]5CC[C@@H](NC(=O)C6CCCC6)CC5)c(=O)c5cc(F)cnc54)c3)cc2)CC1` [Example 236, N-{cis-4-[6-fluoro-1-{4′-[(4-isopropylpiperazin-1-yl)methyl]biphenyl-3-yl}-2,4-dioxo-1,4-di-hydropyrido[2,3-d]pyrimidin-3(2H)-yl]cyclohexyl}cyclo-pentanecarboxamide], the IC50 is 126 pM.
